The source of these data is patent publication US4465843A, “Process for the preparation of derivatives of 2-pyrrole acetic acid with anti-inflammatory activity” (Laboratories Pharmedical SA, priority 1981, dated 1984).

Where two headings read alike, the source gives them in different places.

Test [1] has as its system contorsions as induced by acetic acid. Kind of test: analgesic activity, contorsions induced by acetic acid by intraperitoneal route in the rat (Koster et al). In kind it is in vivo. To be noted: ip.
Test [2] concerns paw edema as induced by carrageenin. Kind of test: anti-inflammatory activity, paw edema induced by carrageenin in the female rat (Winter et al). The note with it: po. The test is classed as in vivo.
Where [3] appears, read: analgesic activity, acetic acid contorsions (i.p.), rat, p.os, read-out: ED50.
[4] abbreviates: anti-inflammatory activity, carrageenin paw edema, female rat, p.os, read-out: ED50.

With `Cc1cc(CC(=O)O)n(C)c1C(=O)c1ccc(Cl)cc1` [Example 2, acetic acid], the results for the ED50 in test [1] (setting [3]) and in test [2] (setting [4]) were 2.5 mg/kg and 1.7 mg/kg, respectively.

For the compound `CCn1c(CC(=O)O)cc(C)c1C(=O)c1ccccc1` [Example 4], the figures for the ED50 in test [1] (setting [3]) and in test [2] (setting [4]) were 82 mg/kg and 48 mg/kg, respectively.

For the compound `CCn1c(CC(=O)O)cc(C)c1C(=O)c1ccc(Cl)cc1` [Example 3], the ED50 in test [1] (setting [3]) was 31 mg/kg; in test [2] (setting [4]), 21.2 mg/kg.

`CC(=O)Oc1ccccc1C(=O)O` [acetyl salicylic acid, reference compound] had an ED50 in test [1] (Rattus norvegicus) of 110 mg/kg.

In turn, `COc1ccc2c(c1)c(CC(=O)O)c(C)n2C(=O)c1ccc(Cl)cc1` [Indomethacin, reference compound] returned an ED50 in test [2] (Rattus norvegicus) of 2.85 mg/kg.
